Tested on: K12877-001-R-J1-PDC complex spheroid viability
Assay: Anticancer human tumor K12877-001-R-J1-PDC patient-derived lung adenocarcinoma cell line growth inhibition [RAS]
Conditions: for IC50: curve of first compound; for viability, T/C: stronger effect = lower value; active = viability on the fitted dose curve at most 10% of control; inactive = the rest
Source text: RAS pathway inhibitors in Combinations in Complex Spheroids
A high-throughput screen of multi-cell type tumor spheroids was designed to identify active combinations of RAS pathway inhibitors and targeted small molecules. Complex spheroids include a stromal component modeled by human endothelial cells (HUVEC) and fibroblasts modeled by human mesenchymal stem cells (MSCs). The concentration ranges selected for each drug and investigational agent were based upon clinically achievable concentrations if the clinical Cmax of the agent was known.
Compounds. The drugs and investigational agents: abemaciclib (NSC768073), cobimetinib (NSC768068), divarasib (GDC6063, NSC841802), docetaxel (NSC628503), GDC-1971 (RLY-1971, NSC841576), gemcitabine (NSC613327), inavolisib (NSC800729), ipatasertib (NSC767898), KB-0742 (NSC834161), MRTX-1133 (NSC836407), osimertinib (NSC779217), RMC-4630 (NSC839698), RMC-6236 (NSC851965), RMC-6291 (NSC852671), Ro-3306 (NSC812927), sapanisertib (NSC764658), SN-38 (NSC673596), staurosporine (NSC755774), SY5609 (NSC837396), and tovorafenib (DAY101, NSC766906), were obtained from the National Cancer Institute (NCI) Developmental Therapeutics Program Chemical Repository. The FDA-approved anticancer drug set is available from the NCI Developmental Therapeutics Program. […] The stock solutions were prepared in dimethyl sulfoxide (DMSO, Sigma-Aldrich, St. Louis, MO, cat. D2650) at 800-fold the tested concentration and stored at -70 degrees C prior to their use. All drugs and investigational agents were tested over a range starting from a high concentration at or near the clinical Cmax and decreasing in half-log increments. If the clinical Cmax for an agent had not been determined, the highest concentration tested was 10 microM.
Cell Culture. All cells were maintained in an incubator at 37 degrees C and 5% CO2 with 95% humidity. The PDC lines were cultured according to standard operating procedures established by the NCI PDMR. All PDCs were thawed and cultured in Matrigel-coated flasks prepared with a working solution of 1X Ham's F-12 nutrient mix, without supplementation (Invitrogen, Waltham, MA, cat. 11765054), 100 U/mL penicillin-streptomycin (Invitrogen, cat. 15140122), and 2.5% Matrigel (Corning Inc., Corning, NY, cat. 354248) for the first three passages. The 362531-283-R-J2-PDC and 782815-120-R-J1-PDC lines were cultured in 6C/Colon 1B media, which includes advanced DMEM/F-12 (Thermo Fisher Scientific, cat. 12634028), 10 mM HEPES (Thermo Fisher Scientific, cat. 15630080), 1X GlutaMAX supplement (Thermo Fisher Scientific, cat. 35050061), 0.1 mg/mL primocin (InvivoGen, San Diego, CA, cat. ant-pm-2), 10% defined fetal bovine serum, heat inactivated (HyClone Laboratories Inc., Logan, UT, cat. SH30070.03HI), 50% L-WRN conditioned media (ATCC, cat. CRL-3276), 1.25 mM N-Acetyl-L-cysteine (Sigma-Aldrich, cat. A9165), 10 mM nicotinamide (Sigma-Aldrich, cat. N0636), 1X B-27 supplement (Thermo Fisher Scientific, cat. 17504044), 1X N-2 supplement (Thermo Fisher Scientific, cat. 17502048), 50 ng/mL human EGF (Thermo Fisher Scientific, cat. PHG0311), and 10 microM Y-27632 dihydrochloride (Tocris Bioscience, cat. 1254). The K12877-001-R-J1-PDC line was cultured in 6I media, which includes all 6C/Colon 1B media plus 10 ng/mL human FGF-10 (PeproTech, cat. 100-26), 1 ng/mL human FGF-2 (PeproTech, cat. 100-18B), 1 µM prostaglandin E2 (Tocris Bioscience, cat. 2296), […] hydrocortisone (Sigma-Aldrich, cat. H4001), and […] bovine insulin (Sigma-Aldrich, cat. I6634). The K86415-001-R-J1-PDC line was cultured in 6D media, which includes all 6C/Colon 1B media components minus the L-WRN conditioned media. The 485176-168-R4-J1-PDC was cultured in PANC media, which includes all 6C/Colon 1B media plus 100 ng/mL human FGF-10 (PeproTech, cat. 100-26), 500 nM SB-431542 (Selleckchem, cat. S1067), and 10 nM gastrin (Tocris Bioscience, cat. 3006). […]
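Also: spheroids exposed to agents for one week before readout.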

CC1(O)CCCC1n1c(=O)c(C(F)F)cc2cnc(NC3CCN(S(C)(=O)=O)CC3)nc21 (centres undefined) + CCn1c(-c2cc(N3CCN(C)CC3)cnc2C(C)OC)c2c3cc(ccc31)-c1csc(n1)CC(NC(=O)C1CC1C)C(=O)N1CCCC(N1)C(=O)OCC(C)(C)C2
inactive: viability, T/C (second compound 0.000949 µM, first compound 0.0316 µM) 95.9% | viability, T/C (second compound 0.000949 µM, first compound 0.1 µM) 78% | viability, T/C (second compound 0.000949 µM, first compound 0.316 µM) 80.6% | viability, T/C (second compound 0.000949 µM, first compound 1 µM) 75.6% | viability, T/C (second compound 0.000949 µM, first compound 3.16 µM) 64.5% | viability, T/C (second compound 0.003 µM, first compound 0.0316 µM) 68.9% | viability, T/C (second compound 0.003 µM, first compound 0.1 µM) 74% | viability, T/C (second compound 0.003 µM, first compound 0.316 µM) 64.5% | viability, T/C (second compound 0.003 µM, first compound 1 µM) 56.2% | viability, T/C (second compound 0.003 µM, first compound 3.16 µM) 46.3% | viability, T/C (second compound 0.00949 µM, first compound 0.0316 µM) 69.5% | viability, T/C (second compound 0.00949 µM, first compound 0.1 µM) 75.4% | viability, T/C (second compound 0.00949 µM, first compound 0.316 µM) 46.4% | viability, T/C (second compound 0.00949 µM, first compound 1 µM) 56.5% | viability, T/C (second compound 0.00949 µM, first compound 3.16 µM) 48.5% | viability, T/C (second compound 0.03 µM, first compound 0.0316 µM) 98.8% | viability, T/C (second compound 0.03 µM, first compound 0.1 µM) 82% | viability, T/C (second compound 0.03 µM, first compound 0.316 µM) 47.6% | viability, T/C (second compound 0.03 µM, first compound 1 µM) 58.9% | viability, T/C (second compound 0.03 µM, first compound 3.16 µM) 46% | viability, T/C (second compound 0.03 µM, first compound 10 µM) 2.97% | viability, T/C (second compound 0.0949 µM, first compound 0.0316 µM) 92% | viability, T/C (second compound 0.0949 µM, first compound 0.1 µM) 62.1% | viability, T/C (second compound 0.0949 µM, first compound 0.316 µM) 45.7% | viability, T/C (second compound 0.0949 µM, first compound 1 µM) 50.4% | viability, T/C (second compound 0.0949 µM, first compound 3.16 µM) 41.6% | viability, T/C (second compound 0.0949 µM, first compound 10 µM) 2.68% | viability, T/C (second compound 0.3 µM, first compound 0.0316 µM) 76.7% | viability, T/C (second compound 0.3 µM, first compound 0.1 µM) 58% | viability, T/C (second compound 0.3 µM, first compound 0.316 µM) 41.7% | viability, T/C (second compound 0.3 µM, first compound 1 µM) 49.6% | viability, T/C (second compound 0.3 µM, first compound 3.16 µM) 43.6% | viability, T/C (second compound 0.3 µM, first compound 10 µM) 2.64%
0.545 µM: IC50 (second compound 0.0949 µM)
0.382 µM: IC50 (second compound 0.3 µM)
active: viability, T/C (second compound 0.000949 µM, first compound 10 µM) 3.86% | viability, T/C (second compound 0.003 µM, first compound 10 µM) 3.15% | viability, T/C (second compound 0.00949 µM, first compound 10 µM) 2.9%
1.99 µM: IC50 (second compound 0.003 µM)
1.84 µM: IC50 (second compound 0.00949 µM)
4.01 µM: IC50 (second compound 0.000949 µM)
0.889 µM: IC50 (second compound 0.03 µM)

CC1(C)CCC(Nc2ncc(C(F)(F)F)c(-c3c[nH]c4c(P(C)(C)=O)c(C#N)ccc34)n2)CN1 (centres undefined) + CCn1c(-c2cc(N3CCN(C)CC3)cnc2C(C)OC)c2c3cc(ccc31)-c1csc(n1)CC(NC(=O)C1CC1C)C(=O)N1CCCC(N1)C(=O)OCC(C)(C)C2
inactive: viability, T/C (second compound 0.000949 µM, first compound 0.000949 µM) 84.8% | viability, T/C (second compound 0.000949 µM, first compound 0.003 µM) 77.5% | viability, T/C (second compound 0.000949 µM, first compound 0.00949 µM) 78.1% | viability, T/C (second compound 0.000949 µM, first compound 0.03 µM) 57.4% | viability, T/C (second compound 0.000949 µM, first compound 0.0949 µM) 35.8% | viability, T/C (second compound 0.000949 µM, first compound 0.3 µM) 28% | viability, T/C (second compound 0.003 µM, first compound 0.000949 µM) 73.1% | viability, T/C (second compound 0.003 µM, first compound 0.003 µM) 66.7% | viability, T/C (second compound 0.003 µM, first compound 0.00949 µM) 65.3% | viability, T/C (second compound 0.003 µM, first compound 0.03 µM) 58% | viability, T/C (second compound 0.003 µM, first compound 0.0949 µM) 37.9% | viability, T/C (second compound 0.003 µM, first compound 0.3 µM) 29.1% | viability, T/C (second compound 0.00949 µM, first compound 0.000949 µM) 68.2% | viability, T/C (second compound 0.00949 µM, first compound 0.003 µM) 71.7% | viability, T/C (second compound 0.00949 µM, first compound 0.00949 µM) 61.5% | viability, T/C (second compound 0.00949 µM, first compound 0.03 µM) 50.7% | viability, T/C (second compound 0.00949 µM, first compound 0.0949 µM) 31.8% | viability, T/C (second compound 0.00949 µM, first compound 0.3 µM) 32.1% | viability, T/C (second compound 0.03 µM, first compound 0.000949 µM) 76% | viability, T/C (second compound 0.03 µM, first compound 0.003 µM) 70.6% | viability, T/C (second compound 0.03 µM, first compound 0.00949 µM) 72.4% | viability, T/C (second compound 0.03 µM, first compound 0.03 µM) 50.8% | viability, T/C (second compound 0.03 µM, first compound 0.0949 µM) 37% | viability, T/C (second compound 0.03 µM, first compound 0.3 µM) 36.2% | viability, T/C (second compound 0.0949 µM, first compound 0.000949 µM) 111% | viability, T/C (second compound 0.0949 µM, first compound 0.003 µM) 113% | viability, T/C (second compound 0.0949 µM, first compound 0.00949 µM) 88.6% | viability, T/C (second compound 0.0949 µM, first compound 0.03 µM) 50.5% | viability, T/C (second compound 0.0949 µM, first compound 0.0949 µM) 39.5% | viability, T/C (second compound 0.0949 µM, first compound 0.3 µM) 33.5% | viability, T/C (second compound 0.3 µM, first compound 0.000949 µM) 97.8% | viability, T/C (second compound 0.3 µM, first compound 0.003 µM) 98.7% | viability, T/C (second compound 0.3 µM, first compound 0.00949 µM) 72.6% | viability, T/C (second compound 0.3 µM, first compound 0.03 µM) 53.8% | viability, T/C (second compound 0.3 µM, first compound 0.0949 µM) 42.2% | viability, T/C (second compound 0.3 µM, first compound 0.3 µM) 37%
0.0308 µM: IC50 (second compound 0.0949 µM)
0.0459 µM: IC50 (second compound 0.003 µM)
0.0376 µM: IC50 (second compound 0.3 µM)
0.045 µM: IC50 (second compound 0.000949 µM)
0.0322 µM: IC50 (second compound 0.03 µM)
0.0274 µM: IC50 (second compound 0.00949 µM)
